Data reported in PubChem BioAssay AID1259407 (Chemical Carcinogenesis Research Information System (CCRIS), 2018).
The source made the active and inactive calls. How the calls were made is not given here.

Test system: CCRIS mutagenicity, Ames/micronucleus/aberration tests
Assay: CCRIS mutagenicity studies
[1] = Test System: AMES SALMONELLA TYPHIMURIUM, Strain/Indicator: TA98, Metabolic Activation: RAT, LIVER, S-9, AROCLOR 1254, Method: STANDARD PLATE
[2] = Test System: AMES SALMONELLA TYPHIMURIUM, Strain/Indicator: TA100, Metabolic Activation: RAT, LIVER, S-9, AROCLOR 1254, Method: STANDARD PLATE
[3] = Test System: AMES SALMONELLA TYPHIMURIUM, Strain/Indicator: TA98, Metabolic Activation: NONE, Method: PREINCUBATION
[4] = Test System: AMES SALMONELLA TYPHIMURIUM, Strain/Indicator: TA100, Metabolic Activation: NONE, Method: PREINCUBATION
[5] = Test System: AMES SALMONELLA TYPHIMURIUM, Strain/Indicator: TA102, Metabolic Activation: NONE, Method: PREINCUBATION
[6] = Test System: AMES SALMONELLA TYPHIMURIUM, Strain/Indicator: TA1537, Metabolic Activation: NONE, Method: STANDARD PLATE
[7] = Test System: AMES SALMONELLA TYPHIMURIUM, Strain/Indicator: TA98, Metabolic Activation: RAT, LIVER, S-9, PCB, Method: PREINCUBATION
[8] = Test System: AMES SALMONELLA TYPHIMURIUM, Strain/Indicator: TA100, Metabolic Activation: RAT, LIVER, S-9, PCB, Method: PREINCUBATION
[9] = Test System: AMES SALMONELLA TYPHIMURIUM, Strain/Indicator: TA98, Metabolic Activation: HAMSTER, LIVER, S-9, AROCLOR 1254, Method: PREINCUBATION
[10] = Test System: AMES SALMONELLA TYPHIMURIUM, Strain/Indicator: TA98, Metabolic Activation: RAT, LIVER, S-9, AROCLOR 1254, Method: PREINCUBATION
[11] = Test System: AMES SALMONELLA TYPHIMURIUM, Strain/Indicator: TA100, Metabolic Activation: HAMSTER, LIVER, S-9, AROCLOR 1254, Method: PREINCUBATION
[12] = Test System: AMES SALMONELLA TYPHIMURIUM, Strain/Indicator: TA100, Metabolic Activation: RAT, LIVER, S-9, AROCLOR 1254, Method: PREINCUBATION
[13] = Test System: AMES SALMONELLA TYPHIMURIUM, Strain/Indicator: TA1535, Metabolic Activation: HAMSTER, LIVER, S-9, AROCLOR 1254, Method: PREINCUBATION
[14] = Test System: AMES SALMONELLA TYPHIMURIUM, Strain/Indicator: TA1535, Metabolic Activation: NONE, Method: PREINCUBATION
[15] = Test System: AMES SALMONELLA TYPHIMURIUM, Strain/Indicator: TA1535, Metabolic Activation: RAT, LIVER, S-9, AROCLOR 1254, Method: PREINCUBATION
[16] = Test System: AMES SALMONELLA TYPHIMURIUM, Strain/Indicator: TA1537, Metabolic Activation: HAMSTER, LIVER, S-9, AROCLOR 1254, Method: PREINCUBATION
[17] = Test System: AMES SALMONELLA TYPHIMURIUM, Strain/Indicator: TA1537, Metabolic Activation: NONE, Method: PREINCUBATION
[18] = Test System: AMES SALMONELLA TYPHIMURIUM, Strain/Indicator: TA1537, Metabolic Activation: RAT, LIVER, S-9, AROCLOR 1254, Method: PREINCUBATION
[19] = Test System: AMES SALMONELLA TYPHIMURIUM, Strain/Indicator: TA98, Metabolic Activation: NONE, Method: STANDARD PLATE
[20] = Test System: AMES SALMONELLA TYPHIMURIUM, Strain/Indicator: TA100, Metabolic Activation: NONE, Method: STANDARD PLATE
[21] = Test System: AMES SALMONELLA TYPHIMURIUM, Strain/Indicator: TA1535, Metabolic Activation: NONE, Method: STANDARD PLATE
[22] = Test System: AMES SALMONELLA TYPHIMURIUM, Strain/Indicator: TA1535, Metabolic Activation: RAT, LIVER, S-9, AROCLOR 1254, Method: STANDARD PLATE
[23] = Test System: AMES SALMONELLA TYPHIMURIUM, Strain/Indicator: TA1537, Metabolic Activation: RAT, LIVER, S-9, AROCLOR 1254, Method: STANDARD PLATE

Clc1c2ccccc2cc2c1ccc1ccccc12
mutagenic call [1]: active; positive | mutagenic call [2]: active; positive | mutagenic call (Test System: AMES SALMONELLA TYPHIMURIUM, Strain/Indicator: TA100, Metabolic Activation: RAT, LIVER, S-9, PCB, Method: STANDARD PLATE): active; positive

Cc1cccc2cc3ccc4ccccc4c3nc12
mutagenic call (Test System: AMES SALMONELLA TYPHIMURIUM, Strain/Indicator: TA97A, Metabolic Activation: NONE, Method: PREINCUBATION): inactive; negative | mutagenic call [3]: inactive; negative | mutagenic call [4]: inactive; negative | mutagenic call [5]: inactive; negative

O=C(O)c1ccc(O)c2c1C(=O)c1cc(O)cc(O)c1C2=O
mutagenic call [6]: inactive; negative | mutagenic call (Test System: AMES SALMONELLA TYPHIMURIUM, Strain/Indicator: TA1537, Metabolic Activation: RAT, LIVER, S-9, PCB, Method: STANDARD PLATE): inactive; negative

Nc1ccc(Cc2ccc(N)c(C(=O)O)c2)cc1C(=O)O
mutagenic call [3]: inactive; negative | mutagenic call [7]: inactive; negative | mutagenic call [4]: inactive; negative | mutagenic call [8]: inactive; negative

CC(C)NCC(O)c1ccc(O)c(O)c1 (centres undefined)
mutagenic call (End Point: IN VITRO CHROMOSOMAL ABERRATIONS, Test System: CHINESE HAMSTER OVARY CELLS, Metabolic Activation: NONE): inactive; negative | mutagenic call (End Point: IN VITRO CHROMOSOMAL ABERRATIONS, Test System: CHINESE HAMSTER OVARY CELLS, Metabolic Activation: RAT, LIVER, S-9, AROCLOR 1254): active; positive | mutagenic call [9]: inactive; negative | mutagenic call [3]: inactive; negative | mutagenic call [10]: inactive; negative | mutagenic call [11]: inactive; negative | mutagenic call [4]: inactive; negative | mutagenic call [12]: inactive; negative | mutagenic call [13]: inactive; negative | mutagenic call [14]: inactive; negative | mutagenic call [15]: inactive; negative | mutagenic call [16]: inactive; negative | mutagenic call [17]: inactive; negative | mutagenic call [18]: inactive; negative

CC1=CC(=O)C=CC1=O
mutagenic call [3]: inactive; negative | mutagenic call (Test System: AMES SALMONELLA TYPHIMURIUM, Strain/Indicator: TA98, Metabolic Activation: RAT, LIVER, S-9, PHENOBARBITAL AND 5,6-BENZOFLAVONE, Method: PREINCUBATION): inactive; negative | mutagenic call [4]: inactive; negative | mutagenic call [5]: inactive; negative | mutagenic call (Test System: AMES SALMONELLA TYPHIMURIUM, Strain/Indicator: TA102, Metabolic Activation: RAT, LIVER, S-9, PHENOBARBITAL AND 5,6-BENZOFLAVONE, Method: PREINCUBATION): inactive; negative | mutagenic call (Test System: AMES SALMONELLA TYPHIMURIUM, Strain/Indicator: TA104, Metabolic Activation: NONE, Method: PREINCUBATION): inactive; negative | mutagenic call (Test System: AMES SALMONELLA TYPHIMURIUM, Strain/Indicator: TA104, Metabolic Activation: RAT, LIVER, S-9, PHENOBARBITAL AND 5,6-BENZOFLAVONE, Method: PREINCUBATION): inactive; negative | mutagenic call (Test System: AMES SALMONELLA TYPHIMURIUM, Strain/Indicator: TA2637, Metabolic Activation: NONE, Method: PREINCUBATION): inactive; negative | mutagenic call (Test System: AMES SALMONELLA TYPHIMURIUM, Strain/Indicator: TA2637, Metabolic Activation: RAT, LIVER, S-9, PHENOBARBITAL AND 5,6-BENZOFLAVONE, Method: PREINCUBATION): active; positive

COc1nncc2ncccc12
mutagenic call [3]: inactive; negative | mutagenic call [7]: inactive; negative | mutagenic call [4]: inactive; negative | mutagenic call [8]: inactive; negative

COc1cc([N+](=O)[O-])c(O)c(C(C)(C)C)c1
mutagenic call [19]: inactive; negative | mutagenic call [1]: inactive; negative | mutagenic call [20]: inactive; negative | mutagenic call [2]: inactive; negative

CC/C=C/C=O
mutagenic call [4]: inactive; negative | mutagenic call (Test System: AMES SALMONELLA TYPHIMURIUM, Strain/Indicator: TA100, Metabolic Activation: NONE, Method: PREINCUBATION (THREEFOLD CELL DENSITY)): active; positive | mutagenic call [12]: active; positive | mutagenic call (Test System: AMES SALMONELLA TYPHIMURIUM, Strain/Indicator: TA100, Metabolic Activation: RAT, LIVER, S-9, AROCLOR 1254, Method: PREINCUBATION (THREEFOLD CELL DENSITY)): active; positive | mutagenic call (Test System: CHINESE HAMSTER V-79, Strain/Indicator: V-79/6-THIOGUANINE, Metabolic Activation: NONE, Method: STANDARD PLATE): active; positive | mutagenic call (Test System: CHINESE HAMSTER V-79, Strain/Indicator: V-79/OUABAIN, Metabolic Activation: NONE, Method: STANDARD PLATE): inactive; negative

COc1ccc2c(c1)-c1nccc3cc(OC)c(O)c(c13)C2=O
mutagenic call (Test System: AMES SALMONELLA TYPHIMURIUM, Strain/Indicator: TA98, Metabolic Activation: RAT, LIVER, S-9, PHENOBARBITAL AND BETA-NAPHTHOFLAVONE, Method: PREINCUBATION): active; positive

CN(C)c1ccc(NS(=O)(=O)c2cccc3cccnc23)cc1
mutagenic call [19]: inactive; negative | mutagenic call [1]: active; positive | mutagenic call [20]: inactive; negative | mutagenic call [2]: active; positive | mutagenic call [21]: inactive; negative | mutagenic call [22]: inactive; negative | mutagenic call [6]: inactive; negative | mutagenic call [23]: inactive; negative

CCOC(=O)c1cccc2cccnc12
mutagenic call [19]: inactive; negative | mutagenic call [1]: inactive; negative | mutagenic call [20]: inactive; negative | mutagenic call [2]: inactive; negative | mutagenic call [21]: inactive; negative | mutagenic call [22]: inactive; negative | mutagenic call [6]: inactive; negative | mutagenic call [23]: inactive; negative

CCCCOC(=O)c1ccc(N)cc1
mutagenic call [9]: inactive; negative | mutagenic call [3]: inactive; negative | mutagenic call [10]: inactive; negative | mutagenic call [11]: inactive; negative | mutagenic call [4]: inactive; negative | mutagenic call [12]: inactive; negative | mutagenic call [13]: inactive; negative | mutagenic call [14]: inactive; negative | mutagenic call [15]: inactive; negative | mutagenic call [16]: inactive; negative | mutagenic call [17]: inactive; negative | mutagenic call [18]: inactive; negative
